Assay results as given in PMC11502502 (Nature cancer, 2024).
Where “and” joins values, the source holds several entries; their conditions need not be identical. Equal entries are not always repeated.

Columns and labels:
Type in all cases: in vivo
[1] = system: MV-4–11 (AML)-xenografted mice; assay: MV-4–11 AML xenograft efficacy and overall survival; set-up: anti-tumor efficacy in MV-4-11 (AML)-tumor bearing mice in combination with SoC (tumor measurement per animal): unit not given here; details: for Overall survival of MV-4-11 (AML)-tumor bearing mice: BRD-810 50 mg/kg; for anti-tumor efficacy in MV-4-11 (AML)-tumor bearing mice in combination with SoC (tumor measurement per animal): individual animals, BRD-810 50mg/kg
[2] = system: THP-1 (AML) xenografted mice; assay: THP-1 AML xenograft efficacy; set-up: anti-tumor efficacy in THP-1 (AML)-tumor bearing mice, individual measurements: unit not given here
SNU398 (HCC) xenografts = assay: SNU398 liver cancer xenograft efficacy; details: SNU-398 (HCC) tumor bearing mice, Regorafinib 30 mg/kg qd po, one value per animal

## Nc1ncn([C@@H]2O[C@H](CO)[C@@H](O)[C@H]2O)c(=O)n1 [Azacytidine]
[1]; day 0 post treatment start
  Overall survival of MV-4-11 (AML)-tumor bearing mice: 100
[1]; day 1 post treatment start
  Overall survival of MV-4-11 (AML)-tumor bearing mice: 100
  anti-tumor efficacy in MV-4-11 (AML)-tumor bearing mice in combination with SoC (tumor measurement per animal): 37.66 and 36.25 and 41.68 and 30.5 and 27.18 and 34.36 and 33.31 and 32.32 and 36.01 and 43.7
[1]; day 4 post treatment start
  Overall survival of MV-4-11 (AML)-tumor bearing mice: 100
  anti-tumor efficacy in MV-4-11 (AML)-tumor bearing mice in combination with SoC (tumor measurement per animal): 54.55 and 56.25 and 56.22 and 40.13 and 37.55 and 44.2 and 45.16 and 42.15 and 44.53 and 58.86
[1]; day 8 post treatment start
  Overall survival of MV-4-11 (AML)-tumor bearing mice: 100
  anti-tumor efficacy in MV-4-11 (AML)-tumor bearing mice in combination with SoC (tumor measurement per animal): 65.52 and 65.46 and 68.31 and 53.62 and 40.92 and 60.68 and 62.4 and 50.31 and 59.65 and 77.78
[1]; day 11 post treatment start
  Overall survival of MV-4-11 (AML)-tumor bearing mice: 100
  anti-tumor efficacy in MV-4-11 (AML)-tumor bearing mice in combination with SoC (tumor measurement per animal): 89.02 and 75.69 and 101.46 and 67.13 and 49.48 and 79.37 and 79.77 and 55.4 and 81.03 and 99.97
[1]; day 15 post treatment start
  Overall survival of MV-4-11 (AML)-tumor bearing mice: 100
  anti-tumor efficacy in MV-4-11 (AML)-tumor bearing mice in combination with SoC (tumor measurement per animal): 108.19 and 101.3 and 133.05 and 77.44 and 61.88 and 97.99 and 123.49 and 81.45 and 115.12 and 117.74
[1]; day 16 post treatment start
  Overall survival of MV-4-11 (AML)-tumor bearing mice: 100
  anti-tumor efficacy in MV-4-11 (AML)-tumor bearing mice in combination with SoC (tumor measurement per animal): 125.36 and 108.14 and 139.95 and 80.65 and 62.33 and 102.82 and 127.03 and 91.37 and 119.07 and 128.51
[1]; day 17 post treatment start
  Overall survival of MV-4-11 (AML)-tumor bearing mice: 100
  anti-tumor efficacy in MV-4-11 (AML)-tumor bearing mice in combination with SoC (tumor measurement per animal): 137.71 and 107.49 and 162.36 and 100.14 and 70.25 and 118.23 and 133.41 and 87.57 and 140.74 and 152.32
[1]; day 19 post treatment start
  Overall survival of MV-4-11 (AML)-tumor bearing mice: 0
[1]; day 22 post treatment start
  Overall survival of MV-4-11 (AML)-tumor bearing mice: 0
[1]; day 23 post treatment start
  Overall survival of MV-4-11 (AML)-tumor bearing mice: 0
[1]; day 24 post treatment start
  Overall survival of MV-4-11 (AML)-tumor bearing mice: 0
[1]; day 25 post treatment start
  Overall survival of MV-4-11 (AML)-tumor bearing mice: 0
[1]; day 28 post treatment start
  Overall survival of MV-4-11 (AML)-tumor bearing mice: 0
[1]; day 30 post treatment start
  Overall survival of MV-4-11 (AML)-tumor bearing mice: 0
[1]; day 32 post treatment start
  Overall survival of MV-4-11 (AML)-tumor bearing mice: 0
[1]; day 34 post treatment start
  Overall survival of MV-4-11 (AML)-tumor bearing mice: 0
[1]; day 37 post treatment start
  Overall survival of MV-4-11 (AML)-tumor bearing mice: 0
[1]; day 39 post treatment start
  Overall survival of MV-4-11 (AML)-tumor bearing mice: 0
[1]; day 41 post treatment start
  Overall survival of MV-4-11 (AML)-tumor bearing mice: 0
[1]; day 44 post treatment start
  Overall survival of MV-4-11 (AML)-tumor bearing mice: 0
[1]; day 46 post treatment start
  Overall survival of MV-4-11 (AML)-tumor bearing mice: 0
[1]; day 48 post treatment start
  Overall survival of MV-4-11 (AML)-tumor bearing mice: 0
[1]; day 51 post treatment start
  Overall survival of MV-4-11 (AML)-tumor bearing mice: 0
[1]; day 53 post treatment start
  Overall survival of MV-4-11 (AML)-tumor bearing mice: 0

## CC1(C)CCC(CN2CCN(c3ccc(C(=O)NS(=O)(=O)c4ccc(NCC5CCOCC5)c([N+](=O)[O-])c4)c(Oc4cnc5[nH]ccc5c4)c3)CC2)=C(c2ccc(Cl)cc2)C1 [venetoclax]
[1]; day 0 post treatment start
  Overall survival of MV-4-11 (AML)-tumor bearing mice: 100
[1]; day 1 post treatment start
  Overall survival of MV-4-11 (AML)-tumor bearing mice: 100
  anti-tumor efficacy in MV-4-11 (AML)-tumor bearing mice in combination with SoC (tumor measurement per animal): 33.13 and 28.19 and 34.15 and 35.82 and 29.42 and 37.09 and 44.34 and 37.28 and 33.74 and 41.97
[1]; day 4 post treatment start
  Overall survival of MV-4-11 (AML)-tumor bearing mice: 100
  anti-tumor efficacy in MV-4-11 (AML)-tumor bearing mice in combination with SoC (tumor measurement per animal): 32.39 and 37.39 and 43.94 and 50.14 and 32.53 and 44.14 and 52.92 and 48.8 and 41.66 and 49.99
[1]; day 8 post treatment start
  Overall survival of MV-4-11 (AML)-tumor bearing mice: 100
  anti-tumor efficacy in MV-4-11 (AML)-tumor bearing mice in combination with SoC (tumor measurement per animal): 41.04 and 57.44 and 59.24 and 62.99 and 49.55 and 52.42 and 59.83 and 53.52 and 48.45 and 66.98
[1]; day 11 post treatment start
  Overall survival of MV-4-11 (AML)-tumor bearing mice: 100
  anti-tumor efficacy in MV-4-11 (AML)-tumor bearing mice in combination with SoC (tumor measurement per animal): 47.19 and 72.26 and 75.92 and 72.38 and 72.25 and 70.02 and 85.2 and 60.52 and 70.23 and 97.04
[1]; day 15 post treatment start
  Overall survival of MV-4-11 (AML)-tumor bearing mice: 100
  anti-tumor efficacy in MV-4-11 (AML)-tumor bearing mice in combination with SoC (tumor measurement per animal): 63.44 and 101.62 and 98.93 and 111.48 and 113.46 and 108.85 and 111.46 and 76.94 and 80.71 and 124.01
[1]; day 16 post treatment start
  Overall survival of MV-4-11 (AML)-tumor bearing mice: 100
  anti-tumor efficacy in MV-4-11 (AML)-tumor bearing mice in combination with SoC (tumor measurement per animal): 66 and 108.03 and 100.41 and 123.76 and 112.88 and 118.57 and 116.35 and 89.12 and 87.16 and 125.05
[1]; day 17 post treatment start
  Overall survival of MV-4-11 (AML)-tumor bearing mice: 0
  anti-tumor efficacy in MV-4-11 (AML)-tumor bearing mice in combination with SoC (tumor measurement per animal): 74.19 and 130.91 and 105.55 and 136.78 and 132.34 and 126.42 and 134.13 and 95.37 and 110.48 and 139.48
[1]; day 19 post treatment start
  Overall survival of MV-4-11 (AML)-tumor bearing mice: 0
[1]; day 22 post treatment start
  Overall survival of MV-4-11 (AML)-tumor bearing mice: 0
[1]; day 23 post treatment start
  Overall survival of MV-4-11 (AML)-tumor bearing mice: 0
[1]; day 24 post treatment start
  Overall survival of MV-4-11 (AML)-tumor bearing mice: 0
[1]; day 25 post treatment start
  Overall survival of MV-4-11 (AML)-tumor bearing mice: 0
[1]; day 28 post treatment start
  Overall survival of MV-4-11 (AML)-tumor bearing mice: 0
[1]; day 30 post treatment start
  Overall survival of MV-4-11 (AML)-tumor bearing mice: 0
[1]; day 32 post treatment start
  Overall survival of MV-4-11 (AML)-tumor bearing mice: 0
[1]; day 34 post treatment start
  Overall survival of MV-4-11 (AML)-tumor bearing mice: 0
[1]; day 37 post treatment start
  Overall survival of MV-4-11 (AML)-tumor bearing mice: 0
[1]; day 39 post treatment start
  Overall survival of MV-4-11 (AML)-tumor bearing mice: 0
[1]; day 41 post treatment start
  Overall survival of MV-4-11 (AML)-tumor bearing mice: 0
[1]; day 44 post treatment start
  Overall survival of MV-4-11 (AML)-tumor bearing mice: 0
[1]; day 46 post treatment start
  Overall survival of MV-4-11 (AML)-tumor bearing mice: 0
[1]; day 48 post treatment start
  Overall survival of MV-4-11 (AML)-tumor bearing mice: 0
[1]; day 51 post treatment start
  Overall survival of MV-4-11 (AML)-tumor bearing mice: 0
[1]; day 53 post treatment start
  Overall survival of MV-4-11 (AML)-tumor bearing mice: 0
[2]; 100 mg kg^−1 orally, daily
  Antitumor efficacy, single agent: neither the Bcl-2 inhibitor venetoclax nor cytarabine showed appreciable single-agent efficacy
[2]; Venetoclax, day 1 post treatment start, animals #5001-#5010
  anti-tumor efficacy in THP-1 (AML)-tumor bearing mice, individual measurements: 36.27 and 38.57 and 29.6 and 32.89 and 34.28 and 28.35 and 32.76 and 34.15 and 38.81 and 36.79
[2]; Venetoclax, day 3 post treatment start, animals #5001-#5010
  anti-tumor efficacy in THP-1 (AML)-tumor bearing mice, individual measurements: 46.08 and 62.31 and 36.23 and 49.99 and 71.57 and 33.25 and 37.51 and 51.73 and 48.97 and 53.06
[2]; Venetoclax, day 6 post treatment start, animals #5001-#5010
  anti-tumor efficacy in THP-1 (AML)-tumor bearing mice, individual measurements: 58.2 and 76.5 and 34.06 and 66.44 and 87.06 and 33.28 and 39.03 and 72.1 and 63 and 57.59
[2]; Venetoclax, day 8 post treatment start, animals #5001-#5010
  anti-tumor efficacy in THP-1 (AML)-tumor bearing mice, individual measurements: 70.38 and 85.8 and 36.3 and 78.87 and 103.9 and 36.38 and 41.14 and 85.31 and 91.47 and 80.8
[2]; Venetoclax, day 10 post treatment start, animals #5001-#5010
  anti-tumor efficacy in THP-1 (AML)-tumor bearing mice, individual measurements: 100.62 and 113 and 44.66 and 100.81 and 143.73 and 36.12 and 44.28 and 122.17 and 124.4 and 110.66
[2]; Venetoclax, day 13 post treatment start, animals #5001-#5010
  anti-tumor efficacy in THP-1 (AML)-tumor bearing mice, individual measurements: 129.99 and 188.46 and 53.9 and 147.24 and 211.83 and 41.12 and 60.34 and 168.23 and 177.94 and 148.93

## Nc1ccn([C@@H]2O[C@H](CO)[C@@H](O)[C@@H]2O)c(=O)n1 [cytarabine]
[2]; 45 mg kg^−1 subcutaneous, 3 days on, 4 days off
  Antitumor efficacy, single agent: neither the Bcl-2 inhibitor venetoclax nor cytarabine showed appreciable single-agent efficacy
[2]; Cytarabine, day 1 post treatment start, animals #3001-#3010
  anti-tumor efficacy in THP-1 (AML)-tumor bearing mice, individual measurements: 34.55 and 34.13 and 35.27 and 36.61 and 37.97 and 29.56 and 32.2 and 26.85 and 39.7 and 33.08
[2]; Cytarabine, day 3 post treatment start, animals #3001-#3010
  anti-tumor efficacy in THP-1 (AML)-tumor bearing mice, individual measurements: 56.73 and 43.71 and 46.59 and 40.5 and 59.56 and 37.55 and 48.92 and 32.47 and 41.3 and 50.46
[2]; Cytarabine, day 6 post treatment start, animals #3001-#3010
  anti-tumor efficacy in THP-1 (AML)-tumor bearing mice, individual measurements: 60.86 and 46.12 and 47.28 and 41.77 and 70.74 and 42.28 and 63.75 and 27.68 and 36.96 and 52.92
[2]; Cytarabine, day 8 post treatment start, animals #3001-#3010
  anti-tumor efficacy in THP-1 (AML)-tumor bearing mice, individual measurements: 80.75 and 48.31 and 57.33 and 37.06 and 69.84 and 40.98 and 72.57 and 28.68 and 37.62 and 62.2
[2]; Cytarabine, day 10 post treatment start, animals #3001-#3010
  anti-tumor efficacy in THP-1 (AML)-tumor bearing mice, individual measurements: 87.52 and 55.21 and 72.45 and 39.84 and 85.66 and 45.49 and 94.07 and 29.37 and 34.83 and 74.1
[2]; Cytarabine, day 13 post treatment start, animals #3001-#3010
  anti-tumor efficacy in THP-1 (AML)-tumor bearing mice, individual measurements: 101.88 and 64.15 and 91.89 and 43.02 and 99.25 and 47.84 and 115.35 and 31.51 and 35.25 and 76.99

## CNC(=O)c1cc(Oc2ccc(NC(=O)Nc3ccc(Cl)c(C(F)(F)F)c3)c(F)c2)ccn1 [Regorafinib]
SNU398 (HCC) xenografts; day 1 post treatment start
  anti-tumor efficacy, individual measurements: 63.45 and 60.8 and 64.88 and 117.14 and 74.08 and 111.9 and 95.85
SNU398 (HCC) xenografts; day 3 post treatment start
  anti-tumor efficacy, individual measurements: 72 and 76.25 and 72.91 and 127.45 and 81.33 and 119.22 and 106.01
SNU398 (HCC) xenografts; day 7 post treatment start
  anti-tumor efficacy, individual measurements: 83.42 and 75.99 and 78.47 and 145.78 and 87.63 and 117.37
SNU398 (HCC) xenografts; day 8 post treatment start
  anti-tumor efficacy, individual measurements: 100.66 and 81.04 and 87.14 and 150.75 and 99.27 and 129.84
SNU398 (HCC) xenografts; day 10 post treatment start
  anti-tumor efficacy, individual measurements: 89.75 and 86.89 and 87.88 and 152.45 and 93.82 and 132.88
SNU398 (HCC) xenografts; day 13 post treatment start
  anti-tumor efficacy, individual measurements: 96.32 and 85.08 and 98.92 and 145.11 and 103.54 and 167.23
